Experimental findings from US20240025906A1 (NEURON23, INC., priority 2022, published 2024) are described below.

One test addresses T1, TYK2 JH2 (Homo sapiens, UniProt P29597).
T1 construct: purchased DiscoverX (KINOMEscan KdELECT service); host or cells: E. coli BL21-derived (T7 phage display) or HEK-293
Briefly: TYK2 JH2 binding assay (KINOMEscan KdELECT competitive binding). The settings on record: TYK2 JH2 domain, KINOMEscan KdELECT (Assay A); read-out: Biochemical TYK2_JH2_Kd. The essentials: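 Test compounds were titrated in 11 three-fold steps against JH2 fragment captured on ligand-loaded magnetic beads, with 1 h incubation at room temperature and DMSO at 0.9%. Eluted kinase was quantified by qPCR, and Kd was fitted from the dose series.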

The test system of test [1] is JAK1/TYK2 pSTAT5 (Tyr694/699) in THP-1 cell line. Briefly: IFNa-stimulated JAK1/TYK2 pSTAT5 (Tyr694/699) inhibition cellular assay, AlphaLISA. The settings on record: Homo sapiens; THP-1 cells, IFNa-stimulated, AlphaLISA (Assay B); read-out: Cellular THP1_IFNa-pSTATS_IC50. Format: cell-based. The method, boiled down:
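Compound dilutions were dispensed first, and HBSS-suspended THP-1 cells were added on top (final top concentration 10000 nM, 6-fold series). After 1 h at 37 °C, IFNa (100 ng/mL as added) was applied for 30 min. Cells were then lysed and pSTAT5 was quantified by AlphaLISA.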
Background: Alpha assays give light when donor and acceptor beads are brought close together.

pIC50, pKd: −log10 of the molar value.

T1 sequence (P29597 589-875 limits assumed): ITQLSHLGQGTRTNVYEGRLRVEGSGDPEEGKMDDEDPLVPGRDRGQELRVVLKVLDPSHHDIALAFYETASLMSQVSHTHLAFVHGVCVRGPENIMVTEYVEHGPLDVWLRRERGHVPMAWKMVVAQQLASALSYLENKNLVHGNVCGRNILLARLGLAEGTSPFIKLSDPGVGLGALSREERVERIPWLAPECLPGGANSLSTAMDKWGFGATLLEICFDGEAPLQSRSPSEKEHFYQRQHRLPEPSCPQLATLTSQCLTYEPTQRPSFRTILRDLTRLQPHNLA

Take `CNc1ncc(-c2cccc(-c3ncnn3C)c2)c2cc(NC(=O)C3CC3)ncc12` [Example 54, N-(5-(3-(1-methyl-1H-1,2,4-triazol-5-yl)phenyl)-8-(methylamino)-2,7-naphthyridin-3-yl)cyclopropanecarboxamide]: the pKd at TYK2 JH2 was at least 7.00. In test [1], the pIC50 is below 6.30.

Consider `CNc1ncc(N2CCCC2)c2cc(NC(=O)C3CC3)ncc12` [Example 55, N-(8-(methylamino)-5-(pyrrolidin-1-yl)-2,7-naphthyridin-3-yl)cyclopropanecarboxamide], for which the pKd on TYK2 JH2 is at least 7.00. Further, the pIC50 in test [1] was below 6.30.

Consider `CNc1ncc(N2CCCCC2)c2cc(NC(=O)C3CC3)ncc12` [Example 56, N-(8-(methylamino)-5-(piperidin-1-yl)-2,7-naphthyridin-3-yl)cyclopropanecarboxamide], for which the pKd on TYK2 JH2 is at least 7.00. In test [1], the pIC50 was below 6.30.

Take `CNc1ncc(-n2cccn2)c2cc(NC(=O)C3CC3)ncc12` [Example 57, N-(8-(methylamino)-5-(1H-pyrazol-1-yl)-2,7-naphthyridin-3-yl)cyclopropanecarboxamide]: on TYK2 JH2, the pKd was at least 7.00. Further, the pIC50 in test [1] is below 6.30.

In the case of `CNc1ncc(-c2nccs2)c2cc(NC(=O)C3CC3)ncc12` [Example 63, N-(8-(methylamino)-5-(thiazol-2-yl)-2,7-naphthyridin-3-yl)cyclopropanecarboxamide], the pKd on TYK2 JH2 was at least 7.00. The pIC50 in test [1] was below 6.30.

Take `CNc1ncc(-c2ccn(CC(F)(F)F)n2)c2cc(NC(=O)C3CC3)ncc12` [Example 64, N-(8-(methylamino)-5-(1-(2,2,2-trifluoroethyl)-1H-pyrazol-3-yl)-2,7-naphthyridin-3-yl)cyclopropanecarboxamide]: the pKd on TYK2 JH2 is at least 7.00. Further, the pIC50 in test [1] was at least 6.30.

For `CNc1ncc(-c2cscn2)c2cc(NC(=O)C3CC3)ncc12` [Example 65, N-(8-(methylamino)-5-(thiazol-4-yl)-2,7-naphthyridin-3-yl)cyclopropanecarboxamide], the pKd on TYK2 JH2 is at least 7.00. The pIC50 in test [1] was below 6.30.

Turning to `CNc1ncc(-c2ncc(C)s2)c2cc(NC(=O)C3CC3)ncc12` [Example 66, N-(8-(methylamino)-5-(5-methylthiazol-2-yl)-2,7-naphthyridin-3-yl)cyclopropanecarboxamide], on TYK2 JH2, the pKd is at least 7.00. Also, the pIC50 in test [1] is below 6.30.

As to `CNc1ncc(C2=CCOCC2)c2cc(NC(=O)C3CC3)ncc12` [Example 67, N-(5-(3,6-dihydro-2H-pyran-4-yl)-8-(methylamino)-2,7-naphthyridin-3-yl)cyclopropanecarboxamide], at TYK2 JH2, the pKd is at least 7.00. In addition, the pIC50 in test [1] was below 6.30.

As to `CNc1ncc(C2CCOCC2)c2cc(NC(=O)C3CC3)ncc12` [Example 68, N-(8-(methylamino)-5-(tetrahydro-2H-pyran-4-yl)-2,7-naphthyridin-3-yl)cyclopropanecarboxamide], the pKd on TYK2 JH2 is at least 7.00. In addition, the pIC50 in test [1] was below 6.30.

For `CNc1ncc(C2=CCCCC2)c2cc(NC(=O)C3CC3)ncc12` [Example 69, N-(5-(cyclohex-1-en-1-yl)-8-(methylamino)-2,7-naphthyridin-3-yl)cyclopropanecarboxamide], the pKd on TYK2 JH2 is at least 7.00. Also, the pIC50 in test [1] was below 6.30.

Take `CNc1ncc(C2CCCCC2)c2cc(NC(=O)C3CC3)ncc12` [Example 70, N-(5-cyclohexyl-8-(methylamino)-2,7-naphthyridin-3-yl)cyclopropanecarboxamide]: the pKd on TYK2 JH2 is at least 7.00. For the same compound, the pIC50 in test [1] is below 6.30.

`C=Cc1cnc(NC)c2cnc(NC(=O)C3CC3)cc12` [Example 71, N-(8-(methylamino)-5-vinyl-2,7-naphthyridin-3-yl)cyclopropanecarboxamide]: the pKd on TYK2 JH2 was at least 7.00. Also, the pIC50 in test [1] is below 6.30.

Turning to `CCc1cnc(NC)c2cnc(NC(=O)C3CC3)cc12` [Example 72, N-(5-ethyl-8-(methylamino)-2,7-naphthyridin-3-yl)cyclopropanecarboxamide], at TYK2 JH2, the pKd was at least 7.00. Moreover, in test [1], the pIC50 is below 6.30.

As for `C=C(C)c1cnc(NC)c2cnc(NC(=O)C3CC3)cc12` [Example 73, N-(8-(methylamino)-5-(prop-1-en-2-yl)-2,7-naphthyridin-3-yl)cyclopropanecarboxamide], the pKd at TYK2 JH2 is at least 7.00. In test [1], the pIC50 is below 6.30.

`CNc1ncc(C(C)C)c2cc(NC(=O)C3CC3)ncc12` [Example 74, N-(5-isopropyl-8-(methylamino)-2,7-naphthyridin-3-yl)cyclopropanecarboxamide]: the pKd at TYK2 JH2 is at least 7.00. Also, the pIC50 in test [1] was below 6.30.

For `CNc1ncc(C2=CCOC2)c2cc(NC(=O)C3CC3)ncc12` [Example 75, N-(5-(2,5-dihydrofuran-3-yl)-8-(methylamino)-2,7-naphthyridin-3-yl)cyclopropanecarboxamide], the pKd on TYK2 JH2 is at least 7.00. In test [1], the pIC50 was below 6.30.

Take `CNc1ncc(C2CCOC2)c2cc(NC(=O)C3CC3)ncc12` (stereo not shown) [Example 76, N-(8-(methylamino)-5-(tetrahydrofuran-3-yl)-2,7-naphthyridin-3-yl)cyclopropanecarboxamide]: the pKd on TYK2 JH2 is at least 7.00. Also, the pIC50 in test [1] was below 6.30.

For `CNc1ncc(C2=CCCOC2)c2cc(NC(=O)C3CC3)ncc12` [Example 77, N-(5-(5,6-dihydro-2H-pyran-3-yl)-8-(methylamino)-2,7-naphthyridin-3-yl)cyclopropanecarboxamide], at TYK2 JH2, the pKd is at least 7.00. For the same compound, the pIC50 in test [1] was below 6.30.

On to `CNc1ncc(C2CCCOC2)c2cc(NC(=O)C3CC3)ncc12` (stereo not shown) [Example 78, N-(8-(methylamino)-5-(tetrahydro-2H-pyran-3-yl)-2,7-naphthyridin-3-yl)cyclopropanecarboxamide], for which the pKd at TYK2 JH2 is at least 7.00. In addition, the pIC50 in test [1] is below 6.30.

With `CNc1ncc(/C=C2\CCOC2)c2cc(NC(=O)C3CC3)ncc12` [Example 79, (E)-N-(5-((dihydrofuran-3(2H)-ylidene)methyl)-8-(methylamino)-2,7-naphthyridin-3-yl)cyclopropanecarboxamide], on TYK2 JH2, the pKd is at least 7.00. The pIC50 in test [1] is below 6.30.

In the case of `CNc1ncc(CC2CCOC2)c2cc(NC(=O)C3CC3)ncc12` (stereo not shown) [Example 80, N-(8-(methylamino)-5-((tetrahydrofuran-3-yl)methyl)-2,7-naphthyridin-3-yl)cyclopropanecarboxamide], the pKd on TYK2 JH2 was at least 7.00. Further, the pIC50 in test [1] is below 6.30.

Consider `CNc1ncc(-c2csc(C)n2)c2cc(NC(=O)C3CC3)ncc12` [Example 81, N-(8-(methylamino)-5-(2-methylthiazol-4-yl)-2,7-naphthyridin-3-yl)cyclopropanecarboxamide], for which the pKd at TYK2 JH2 was at least 7.00. For the same compound, in test [1], the pIC50 is below 6.30.

Consider `CNc1ncc(-c2ccsn2)c2cc(NC(=O)C3CC3)ncc12` [Example 82, N-(5-(isothiazol-3-yl)-8-(methylamino)-2,7-naphthyridin-3-yl)cyclopropanecarboxamide], for which, at TYK2 JH2, the pKd is at least 7.00. Moreover, in test [1], the pIC50 is below 6.30.

On to `CNc1ncc(-c2cnsc2)c2cc(NC(=O)C3CC3)ncc12` [Example 83, N-(5-(isothiazol-4-yl)-8-(methylamino)-2,7-naphthyridin-3-yl)cyclopropanecarboxamide], for which the pKd at TYK2 JH2 is at least 7.00. Also, in test [1], the pIC50 was below 6.30.

Regarding `CNc1ncc(-c2ccns2)c2cc(NC(=O)C3CC3)ncc12` [Example 84, N-(5-(isothiazol-5-yl)-8-(methylamino)-2,7-naphthyridin-3-yl)cyclopropanecarboxamide], the pKd on TYK2 JH2 was at least 7.00. Besides, the pIC50 in test [1] is below 6.30.

For `CNc1ncc(C2=CCOC2=O)c2cc(NC(=O)C3CC3)ncc12` [Example 85, N-(8-(methylamino)-5-(2-oxo-2,5-dihydrofuran-3-yl)-2,7-naphthyridin-3-yl)cyclopropanecarboxamide], at TYK2 JH2, the pKd is 6.00 to 7.00. Further, the pIC50 in test [1] was below 6.30.

For the compound `CNc1ncc(C2CCOC2=O)c2cc(NC(=O)C3CC3)ncc12` (stereo not shown) [Example 86, N-(8-(methylamino)-5-(2-oxotetrahydrofuran-3-yl)-2,7-naphthyridin-3-yl)cyclopropanecarboxamide], the pKd on TYK2 JH2 is at least 7.00. For the same compound, the pIC50 in test [1] is below 6.30.

For `CNc1ncc(-c2ccn(CC#N)n2)c2cc(NC(=O)C3CC3)ncc12` [Example 87, N-(5-(1-(cyanomethyl)-1H-pyrazol-3-yl)-8-(methylamino)-2,7-naphthyridin-3-yl)cyclopropanecarboxamide], the pKd on TYK2 JH2 is at least 7.00. Further, the pIC50 in test [1] was below 6.30.

In the case of `CNc1ncc(CC(F)(F)F)c2cc(NC(=O)C3CC3)ncc12` [Example 88, N-(8-(methylamino)-5-(2,2,2-trifluoroethyl)-2,7-naphthyridin-3-yl)cyclopropanecarboxamide], the pKd at TYK2 JH2 is at least 7.00. The pIC50 in test [1] is below 6.30.

Regarding `CNc1ncc(-c2ncccc2OC)c2cc(NC(C)=O)ncc12` [Example 89, N-(5-(3-methoxypyridin-2-yl)-8-(methylamino)-2,7-naphthyridin-3-yl)acetamide], on TYK2 JH2, the pKd was 6.00 to 7.00. For the same compound, the pIC50 in test [1] was below 6.30.

As for `CNc1ncc(-c2ccccc2)c2cc(NC(C)=O)ncc12` [Example 90, N-(8-(methylamino)-5-phenyl-2,7-naphthyridin-3-yl)acetamide], at TYK2 JH2, the pKd was at least 7.00. Also, in test [1], the pIC50 was below 6.30.
